The values that follow come from PubChem BioAssay (NCI).

Some test systems named below: SR leukemia; OVCAR-8 ovarian; IGROV1 ovarian; MDA-MB-231 breast; UO-31 renal; SN12C renal; CCRF-CEM leukemia; HS 578T breast; UACC-257 melanoma; NCI/ADR-RES ovarian.
What all share (test): inhibition of tumour cell growth, NCI panel, 48 h

Molecules are shown by their SMILES. Several values for one entry are separate records, joined by “and”; a condition that tells them apart may be missing. Equal values may be shown once.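 These data come from cells grown in 96-well plates and exposed to compound for 48 hours at five concentrations. GI50 marks 50% less growth. The concentration for full growth arrest is given as TGI.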

For `NC1CCC(Nc2nc(NCc3ccc(-c4cccs4)nc3)c3ncn(C4CCCC4)c3n2)CC1` (centres undefined), the GI50 with SR leukemia was 0.0328 µM; with OVCAR-8 ovarian it was 0.0504 µM; with IGROV1 ovarian, 0.0363 µM; with MDA-MB-231 breast it was 0.024 µM; with UO-31 renal it was 0.203 µM; in the assay with SN12C renal, 0.0341 µM. Further, the GI50 in the assay on CCRF-CEM leukemia was 0.0329 µM; with HS 578T breast, 0.0269 µM; in the assay with UACC-257 melanoma it was 0.0568 µM; with NCI/ADR-RES ovarian, 0.244 µM. Further, the TGI in the assay on SR leukemia was determined as 0.582 µM; in the assay with OVCAR-8 ovarian, 12.9 µM; in the assay with IGROV1 ovarian, 1.93 µM; with MDA-MB-231 breast it was 1.59 µM; with UO-31 renal, 0.661 µM; in the assay on SN12C renal, 1.81 µM. Moreover, the TGI in the assay with CCRF-CEM leukemia was determined as 0.554 µM; in the assay on HS 578T breast, 2.28 µM; in the assay with UACC-257 melanoma, 0.295 µM; in the assay with NCI/ADR-RES ovarian, 4.29 µM.

On to `COC1CCN(C(=O)c2cc(Cc3n[nH]c(=O)c4ccccc34)ccc2F)CC1`, for which the GI50 with SR leukemia was 21.7 µM; in the assay with OVCAR-8 ovarian, over 73.2 µM; in the assay with IGROV1 ovarian it was over 60.4 µM; in the assay with MDA-MB-231 breast it was over 100 µM; in the assay on UO-31 renal it was 84.5 µM; in the assay with SN12C renal it was 67.5 µM. Moreover, the GI50 in the assay with CCRF-CEM leukemia is 43.9 µM; in the assay on HS 578T breast it was over 64.5 µM; in the assay on UACC-257 melanoma, over 83.2 µM; in the assay with NCI/ADR-RES ovarian it was over 76.8 µM. In addition, the TGI with SR leukemia, with OVCAR-8 ovarian, in the assay with IGROV1 ovarian, in the assay with MDA-MB-231 breast, in the assay on UO-31 renal and with SN12C renal was over 100 µM throughout. Also, the TGI with CCRF-CEM leukemia, in the assay on HS 578T breast, with UACC-257 melanoma and in the assay on NCI/ADR-RES ovarian was over 100 µM throughout.

In the case of `CN(Cc1cc(Br)cc(Br)c1O)Cc1cc(Br)cc(Br)c1O`, the GI50 in the assay on SR leukemia was 0.675 µM; in the assay on OVCAR-8 ovarian, 1.94 µM; with IGROV1 ovarian, 1.56 µM; in the assay with MDA-MB-231 breast, 3.26 µM; with UO-31 renal, 1.08 µM; in the assay with SN12C renal, 2.5 µM. For the same compound, the GI50 was 1.31 µM in the assay with CCRF-CEM leukemia, 5.24 µM in the assay with HS 578T breast, 2.44 µM in the assay with UACC-257 melanoma and 1.83 µM in the assay on NCI/ADR-RES ovarian. In addition, the TGI is 28.3 µM in the assay on SR leukemia; 16.1 µM in the assay with OVCAR-8 ovarian; 18.1 µM with IGROV1 ovarian; 19.6 µM in the assay on MDA-MB-231 breast; 14.6 µM in the assay with UO-31 renal; 16.7 µM in the assay with SN12C renal. Moreover, the TGI with CCRF-CEM leukemia was over 100 µM; in the assay on HS 578T breast, 47.7 µM; in the assay on UACC-257 melanoma, 11.5 µM; in the assay on NCI/ADR-RES ovarian, 12.6 µM.

With `O=C1C(=O)c2c(nc3ccc(Br)cn23)-c2ccccc21`, the GI50 was 0.33 µM with SR leukemia; 0.575 µM with OVCAR-8 ovarian; 1.05 µM in the assay with IGROV1 ovarian; 0.465 µM in the assay on MDA-MB-231 breast; 0.48 µM with UO-31 renal; 0.329 µM in the assay on SN12C renal. Also, the GI50 in the assay on CCRF-CEM leukemia is 1.25 µM; in the assay with HS 578T breast it was 0.438 µM; in the assay on UACC-257 melanoma, 0.747 µM; in the assay with NCI/ADR-RES ovarian it was 0.699 µM. Further, the TGI with SR leukemia worked out at 1.52 µM; with OVCAR-8 ovarian, 1.68 µM; in the assay on IGROV1 ovarian, 2.74 µM; in the assay on MDA-MB-231 breast it was 2.86 µM; in the assay on UO-31 renal it was 1.24 µM; with SN12C renal, 0.806 µM. Besides, the TGI with CCRF-CEM leukemia turned out to be 5.18 µM; in the assay on HS 578T breast it was 2.23 µM; in the assay on UACC-257 melanoma it was 2.09 µM; with NCI/ADR-RES ovarian it was 3.87 µM.

Turning to `CCCCCCCCCCCCCC1=NCCN1CCO`, the GI50 is 3.75 µM with SR leukemia; 3.4 µM with OVCAR-8 ovarian; 4.46 µM with IGROV1 ovarian; 3.04 µM in the assay with MDA-MB-231 breast; 2.46 µM in the assay on UO-31 renal; 2.57 µM with SN12C renal. Besides, the GI50 in the assay with CCRF-CEM leukemia was 10.5 µM; with HS 578T breast, 2.66 µM; with UACC-257 melanoma, 12.6 µM; with NCI/ADR-RES ovarian it was 5 µM. Further, the TGI was over 100 µM in the assay with SR leukemia; over 28.1 µM in the assay on OVCAR-8 ovarian; over 100 µM in the assay with IGROV1 ovarian; 8.28 µM with MDA-MB-231 breast; 6.16 µM in the assay with UO-31 renal; 6.47 µM in the assay on SN12C renal. For the same compound, the TGI was over 100 µM with CCRF-CEM leukemia, 6.54 µM in the assay with HS 578T breast, 36.9 µM in the assay with UACC-257 melanoma and 21.2 µM in the assay with NCI/ADR-RES ovarian.

In the case of `CN(C)CCNC(=O)C(C)(C)Oc1ccc(C(=O)c2ccc(Cl)cc2)cc1Cl`, the GI50 with SR leukemia was 3.48 µM; in the assay on MDA-MB-231 breast, 2.25 µM; with SN12C renal, 3.59 µM; with CCRF-CEM leukemia, 5.31 µM; in the assay on UACC-257 melanoma it was 3.11 µM. Further, the TGI in the assay with SR leukemia was over 100 µM; with OVCAR-8 ovarian it was 24.5 µM; in the assay on IGROV1 ovarian it was 25.3 µM; with MDA-MB-231 breast, 4.93 µM and 23.6 µM; with UO-31 renal it was 22.8 µM; in the assay on SN12C renal, 26.7 µM. The TGI is over 77.3 µM in the assay with CCRF-CEM leukemia; 23 µM with HS 578T breast; 7.79 µM and 4.84 µM in the assay on UACC-257 melanoma; 26.1 µM with NCI/ADR-RES ovarian.

Regarding `Clc1cccc(Cl)c1C1CSc2ccccc2N=C1c1ccccc1` (centres undefined), the GI50 with SR leukemia is 3.42 µM; in the assay on OVCAR-8 ovarian, 3.34 µM; in the assay with IGROV1 ovarian, 3.13 µM; with MDA-MB-231 breast, 2.95 µM; in the assay with UO-31 renal it was 1.42 µM; in the assay with SN12C renal, 3.35 µM. Also, the GI50 in the assay on CCRF-CEM leukemia is 3.44 µM; in the assay with HS 578T breast, 6.26 µM; in the assay on UACC-257 melanoma, 13.5 µM; in the assay on NCI/ADR-RES ovarian, 4.14 µM. Moreover, the TGI in the assay with SR leukemia is over 100 µM; with OVCAR-8 ovarian, 10.2 µM; with IGROV1 ovarian it was 11.8 µM; with MDA-MB-231 breast, 14.1 µM; in the assay on UO-31 renal it was 4.57 µM; in the assay with SN12C renal, 12.3 µM. For the same compound, the TGI was determined as 34.8 µM in the assay with CCRF-CEM leukemia, 57.6 µM with HS 578T breast, 27 µM in the assay with UACC-257 melanoma and 32 µM with NCI/ADR-RES ovarian.

On to `c1cc2[nH]ncc2cc1-c1nc2ccc3[nH]ncc3c2c2c1CCCC2`, for which the GI50 with SR leukemia is 0.338 µM; with OVCAR-8 ovarian it was 2.66 µM; with IGROV1 ovarian, 0.541 µM; in the assay on MDA-MB-231 breast it was 2.67 µM; in the assay on UO-31 renal, 1.33 µM; with SN12C renal it was 2.53 µM. Also, the GI50 in the assay on CCRF-CEM leukemia is 0.836 µM; in the assay with HS 578T breast, 1.71 µM; in the assay with UACC-257 melanoma, 1.67 µM; with NCI/ADR-RES ovarian, 2.08 µM. For the same compound, the TGI in the assay on OVCAR-8 ovarian is 15.9 µM; in the assay on IGROV1 ovarian, 7.29 µM; in the assay with MDA-MB-231 breast, 11.6 µM; in the assay with UO-31 renal, 4.54 µM; with SN12C renal it was 13.4 µM; with CCRF-CEM leukemia, over 25.3 µM. The results for the TGI in the assay with HS 578T breast, with UACC-257 melanoma and with NCI/ADR-RES ovarian were 13.7 µM, 8.21 µM and 16.4 µM, respectively.
